PubChem BioAssay (NCI)
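Step 1: Grow cells in 96-well plates. Step 2: Expose to compound for 48 hours at 5 concentrations. Step 3: Interpolate endpoints linearly; if unreached, use highest concentration. GI50 = concentration required for 50% inhibition of growth. At the TGI there is no net growth.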

Experiments:
Assay in all cases: NCI tumour cell line growth inhibition, 48 h
A549 NSCLC = test system: A549 NSCLC
DMS 114 small cell lung = test system: DMS 114 small cell lung
KM12 colon = test system: KM12 colon
SF-295 CNS = test system: SF-295 CNS
SN12C renal = test system: SN12C renal
SNB-19 CNS = test system: SNB-19 CNS
SNB-75 CNS = test system: SNB-75 CNS
SNB-78 CNS = test system: SNB-78 CNS
UO-31 renal = test system: UO-31 renal
BT-549 breast = test system: BT-549 breast

Row | SMILES | TGI (A549 NSCLC) | TGI (DMS 114 small cell lung) | TGI (KM12 colon) | TGI (SF-295 CNS) | TGI (SN12C renal) | TGI (SNB-19 CNS) | TGI (SNB-75 CNS) | TGI (SNB-78 CNS) | TGI (UO-31 renal) | GI50 (A549 NSCLC) | GI50 (BT-549 breast) | TGI (BT-549 breast) | GI50 (KM12 colon) | GI50 (SF-295 CNS) | GI50 (SN12C renal) | GI50 (SNB-19 CNS) | GI50 (SNB-75 CNS) | GI50 (UO-31 renal)
1 | COc1nc2c(nc(N)n2C2OC(CO)C(O)C(O)C2O)c(=O)n1C (stereo unspecified) | > 100 µM | > 100 µM | > 100 µM | > 100 µM | > 100 µM | > 100 µM | > 100 µM | > 100 µM | > 100 µM | – | – | – | – | – | – | – | – | –
2 | Nc1nc(Cl)nc2c1ncn2C1O[C@H](CO)[C@@H](O)[C@@H]1F (stereo partly specified) | > 100 µM | – | > 100 µM | > 100 µM | > 100 µM | > 100 µM | > 100 µM | – | 1.24 µM | 0.379 µM | 0.091 µM | 0.702 µM | 29.7 µM | 2.87 µM | 0.0668 µM | 0.216 µM | 2.25 µM | 0.156 µM
3 | CC(=O)OCCOCNC(=S)N/N=C(\C)c1ccco1 | > 100 µM | > 100 µM | > 100 µM | > 100 µM | > 100 µM | > 100 µM | > 100 µM | > 100 µM | > 100 µM | – | – | – | – | – | – | – | – | –
4 | O=S1(=O)CSc2ccc3ccccc3c2-c2c1ccc1ccccc21 | > 100 µM | > 100 µM | > 100 µM | > 100 µM | > 100 µM | > 100 µM | > 100 µM | > 100 µM | > 100 µM | – | – | – | – | – | – | – | – | –
5 | COC(=O)/C(C#N)=C1\N=NNN1CCCc1ccccc1 | > 100 µM | > 100 µM | > 100 µM | > 100 µM | > 100 µM | > 100 µM | > 100 µM | > 100 µM | > 100 µM | – | – | – | – | – | – | – | – | –
6 | CC(C)(C)c1ccc(-c2nnc(SCc3ccc(Cl)cc3)n2-c2cccc(C(F)(F)F)c2)cc1 | > 100 µM | – | > 100 µM | > 100 µM | 14 µM | > 100 µM | > 94.1 µM | – | 34.2 µM | – | – | > 100 µM | – | – | – | – | – | –
7 | CCN(CCCl)CCNc1c2ccccc2nc2ccc(OC)cc12 | 7.11 µM | 2.35 µM | 3.11 µM | 4 µM | 2.85 µM | 8.62 µM | 3.27 µM | 4.68 µM | 3.98 µM | – | – | – | – | – | – | – | – | –
8 | NC(=O)NC(=O)CI | 37.4 µM | – | 35.5 µM | > 57.7 µM | 19.2 µM | 97.7 µM | 29.4 µM | – | 3.19 µM | 18.8 µM | 4.28 µM | 11.3 µM | 18.2 µM | 23.9 µM | 6.63 µM | 34 µM | 15.2 µM | 1.68 µM
9 | CC1=C(C(=O)Nc2ccc(F)c(Cl)c2)C(c2cccc(Cl)c2)NC(=O)N1 (stereo unspecified) | 85.1 µM | – | 38.7 µM | 50.9 µM | 32.1 µM | 39 µM | 25.5 µM | – | 38.1 µM | 24.7 µM | 19 µM | 42 µM | 20.6 µM | 20.2 µM | 16 µM | 18.1 µM | 6.2 µM | 16.1 µM
10 | C=C1C(=O)O[C@H]2[C@H]1CC/C(Cn1cc(CCC)nn1)=C\CC[C@@]1(C)O[C@@H]21 | 44.3 µM | – | 34.1 µM | 39.2 µM | 29.4 µM | 38.1 µM | 69.4 µM | – | 24.6 µM | 22.3 µM | 14.2 µM | 28.6 µM | 17.6 µM | 18.5 µM | 12.1 µM | 18.8 µM | 18.5 µM | 11.1 µM
11 | COc1cc2c(/C=C3\C(=O)Nc4ccc(Br)cc43)c(Cl)n(C)c2cc1C | 14.5 µM | – | 1.88 µM | 1.16 µM | 11.4 µM | 48.8 µM | > 25.7 µM | – | 11.3 µM | 2.56 µM | 1.49 µM | 4.77 µM | 0.387 µM | 0.327 µM | 3.05 µM | 2.57 µM | 1.82 µM | 2.46 µM
12 | CC(O)CN(CCN(CC(C)O)CC(C)O)CC(C)O.O=[N+]([O-])O.[Cu+2] (stereo unspecified) | > 100 µM | – | > 100 µM | > 100 µM | > 100 µM | 74.5 µM | > 100 µM | – | > 100 µM | 46.5 µM | > 100 µM | > 100 µM | > 100 µM | 9.07 µM | > 100 µM | 30.5 µM | > 100 µM | > 100 µM
13 | CC(C)(C)c1ccccc1NS(=O)(=O)c1ccccc1 | > 100 µM | > 100 µM | > 100 µM | > 100 µM | > 100 µM | – | > 100 µM | > 100 µM | > 100 µM | – | – | – | – | – | – | – | – | –
14 | O=Cc1ccc(C(F)(F)F)cc1.[C-]#[O+].[C-]#[O+].[C-]#[O+].[Cr] | > 100 µM | – | 91.5 µM | > 100 µM | 82.1 µM | 89.6 µM | 49.5 µM | – | 48.5 µM | 23 µM | 40.1 µM | > 100 µM | 24.6 µM | 38.1 µM | 22.6 µM | 26.7 µM | 15.6 µM | 16 µM
15 | Cc1nc2cc(O)c(O)cc2cc1Oc1ccc(NC(=O)Nc2ccc(Cl)c(Cl)c2)cc1 | 26.2 µM | – | 32 µM | > 32.5 µM | 30.3 µM | > 32.5 µM | 28.9 µM | – | 14.9 µM | 8.99 µM | 7.5 µM | > 32.5 µM | 9.64 µM | 11.4 µM | 8.97 µM | 10.1 µM | 7.73 µM | 6.97 µM
16 | COc1ccc(C(=O)Nc2cccc(C3CC(=O)c4c(cc(OC)c(OC)c4OC)O3)c2)cc1 (stereo unspecified) | > 100 µM | – | 14.7 µM | 63.8 µM | > 100 µM | > 100 µM | 8.35 µM | – | > 100 µM | 3.31 µM | 1.01 µM | 7.81 µM | 1.08 µM | 1.72 µM | 1.62 µM | 1.01 µM | 1.35 µM | 1.33 µM
17 | Fc1ccc(Nc2nc(Nc3ccc(-c4nc5ccccc5[nH]4)cc3)nc(N3CCCC3)n2)cc1 | 9.1 µM | – | 10 µM | 4.37 µM | 5.24 µM | 19.1 µM | 3.89 µM | – | 14.4 µM | 3.07 µM | 6.9 µM | 20.7 µM | 2.98 µM | 1.97 µM | 2.25 µM | 3.93 µM | 1.7 µM | 3.13 µM
